From US7241791B2, “Substituted 4-(indazol-3-yl)phenols” (Wyeth, priority 2002, dated 2007)
Several values for one entry are separate records, joined by “and”; a condition that tells them apart may be missing. Equal entries are not always repeated.

How the values were obtained:
human ERα [1] = molecular target: T1, human ERα (Homo sapiens, UniProt P03372); experiment: NF-κB luciferase reporter (ER/NF-KB-luc) in Ad5-wt-hERα infected HAECT-1 cells; settings: for IC50: ER/NF-KB-luc IC50, Ad5-wt-ER infected HAECT-1 cells, IL-1β; for Emax: HAECT1, read-out: ER/NF-KB-luc % E2, efficacy relative to the maximal inhibition observed with E2
T1 sequence (P03372 1-595): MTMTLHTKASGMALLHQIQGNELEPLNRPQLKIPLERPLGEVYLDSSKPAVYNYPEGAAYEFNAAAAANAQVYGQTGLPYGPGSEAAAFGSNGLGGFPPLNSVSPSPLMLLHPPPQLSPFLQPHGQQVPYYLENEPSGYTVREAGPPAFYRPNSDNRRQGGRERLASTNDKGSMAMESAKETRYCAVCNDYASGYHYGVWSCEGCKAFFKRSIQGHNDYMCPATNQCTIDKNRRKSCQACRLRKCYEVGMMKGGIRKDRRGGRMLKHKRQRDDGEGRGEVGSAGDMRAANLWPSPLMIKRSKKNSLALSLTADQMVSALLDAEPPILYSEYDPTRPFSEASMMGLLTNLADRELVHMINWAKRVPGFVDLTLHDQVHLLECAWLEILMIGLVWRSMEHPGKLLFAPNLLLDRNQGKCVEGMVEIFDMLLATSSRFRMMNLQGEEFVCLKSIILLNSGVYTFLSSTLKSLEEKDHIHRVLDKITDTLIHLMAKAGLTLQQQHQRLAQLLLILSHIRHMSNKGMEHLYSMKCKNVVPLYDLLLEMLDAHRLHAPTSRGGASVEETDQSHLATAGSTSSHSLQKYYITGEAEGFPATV

human ERα [2] = molecular target: T1, human ERα; experiment: Creatine kinase expression (ER/CK) in Ad5-wt-hERα infected HAECT-1 cells; settings: for ER/CK % E2: efficacy relative to the maximal stimulation observed with E2

CCCCCn1nc(-c2ccc(O)cc2)c2cccc(Cl)c21 [Example 41, 4-(7-chloro-1-pentyl-1H-indazol-3-yl)phenol]
IC50 (human ERα [1]): 95 nM | Emax (human ERα [1]): 85% | EC50 (human ERα [2]): 415 nM | ER/CK % E2 (human ERα [2]): 39 % E2

Cn1nc(-c2ccc(O)c(O)c2)c2cccc(C(F)(F)F)c21 [Example 176, 4-[1-methyl-7-(trifluoromethyl)-1H-indazol-3-yl]benzene-1,2-diol]
IC50 (human ERα [1]): 587 nM | Emax (human ERα [1]): 111% | EC50 (human ERα [2]): 1040 nM | ER/CK % E2 (human ERα [2]): 70 % E2

CCCn1nc2c(-c3ccccc3)cccc2c1-c1ccc(O)cc1 [Example 110, 4-(7-phenyl-2-propyl-2H-indazol-3-yl)phenol]
IC50 (human ERα [1]): 2 nM | Emax (human ERα [1]): 89% | EC50 (human ERα [2]): 12 nM | ER/CK % E2 (human ERα [2]): 82 % E2

CCCn1nc(-c2ccc(O)cc2)c2cccc(C(F)(F)F)c21 [Example 48, 4-[1-propyl-7-(trifluoromethyl)-1H-indazol-3-yl]phenol]
IC50 (human ERα [1]): 42 nM | Emax (human ERα [1]): 107% | EC50 (human ERα [2]): 79 nM | ER/CK % E2 (human ERα [2]): 49 % E2

Oc1ccc(-c2nn(Cc3ccccc3)c3ccc(C(F)(F)F)cc23)c(O)c1 [Example 182, 4-[1-benzyl-5-(trifluoromethyl)-1H-indazol-3-yl]benzene-1,3-diol]
IC50 (human ERα [1]): 443 nM | Emax (human ERα [1]): 121% | EC50 (human ERα [2]): 2930 nM | ER/CK % E2 (human ERα [2]): 71 % E2

Cc1cccc2c(-c3ccc(O)cc3)n(C(C)C)nc12 [Example 40, 4-[2-isopropyl-7-methyl-2H-indazol-3-yl]phenol]
Emax (human ERα [1]): 108% | EC50 (human ERα [2]): 22 nM | ER/CK % E2 (human ERα [2]): 79 % E2

Cn1nc(-c2ccc(O)cc2O)c2cccc(Cl)c21 [Example 170, 4-(7-chloro-1-methyl-1H-indazol-3-yl)benzene-1,3-diol]
IC50 (human ERα [1]): 276 nM | Emax (human ERα [1]): 77% | EC50 (human ERα [2]): 827 nM | ER/CK % E2 (human ERα [2]): 28 % E2

CC(C)n1nc(-c2ccc(O)cc2)c2cccc(F)c21 [Example 55, 4-(7-fluoro-1-isopropyl-1H-indazol-3-yl)phenol]
IC50 (human ERα [1]): 26 nM | Emax (human ERα [1]): 90% | EC50 (human ERα [2]): 401 nM | ER/CK % E2 (human ERα [2]): 49 % E2

C=CCn1nc(-c2ccc(O)cc2)c2cccc(C)c21 [Example 57, 4-(1-allyl-7-methyl-1H-indazol-3-yl)phenol]
IC50 (human ERα [1]): 45 nM | Emax (human ERα [1]): 89% | EC50 (human ERα [2]): 205 nM | ER/CK % E2 (human ERα [2]): 45 % E2

Cc1cc(O)ccc1-c1nn(C2CCCC2)c2c(-c3ccccc3)cccc12 [Example 265, 4-(1-cyclopentyl-7-phenyl-1H-indazol-3-yl)-3-methylphenol]
IC50 (human ERα [1]): 6 nM | Emax (human ERα [1]): 82% | EC50 (human ERα [2]): 138 nM | ER/CK % E2 (human ERα [2]): 28 % E2

CCCn1nc2c(C)cccc2c1-c1ccc(O)cc1 [Example 38, 4-[7-methyl-2-propyl-2H-indazol-3-yl]phenol]
Emax (human ERα [1]): 89% | EC50 (human ERα [2]): 25 nM | ER/CK % E2 (human ERα [2]): 70 % E2

CCCn1nc(-c2ccc(O)cc2C)c2cccc(C(F)(F)F)c21 [Example 76, 3-methyl-4-[1-propyl-7-(trifluoromethyl)-1H-indazol-3-yl]phenol]
IC50 (human ERα [1]): 22 nM | Emax (human ERα [1]): 86% | EC50 (human ERα [2]): 57 nM | ER/CK % E2 (human ERα [2]): 20 % E2

Oc1ccc(-c2nn(C3CCCC3)c3c(C(F)(F)F)cccc23)c(O)c1 [Example 66, 4-[1-cyclopentyl-7-(trifluoromethyl)-1H-indazol-3-yl] benzene-1,3-diol]
IC50 (human ERα [1]): 29 nM | Emax (human ERα [1]): 56% | EC50 (human ERα [2]): 17 nM | ER/CK % E2 (human ERα [2]): 32 % E2

Oc1ccc(-c2nn(C3CCCCC3)c3c(F)cccc23)cc1 [Example 33, 4-(1-cyclohexyl-7-fluoro-1H-indazol-3-yl)phenol]
IC50 (human ERα [1]): 37 nM | Emax (human ERα [1]): 92% | EC50 (human ERα [2]): 51 nM | ER/CK % E2 (human ERα [2]): 34 % E2

CC(C)(C)OC(=O)N[C@@H](CCC(=O)Oc1ccc(-c2nn(C3CCCC3)c3c(F)cccc23)cc1)C(=O)OC(C)(C)C [Example 117, 1-tert-butyl 5-[4-(1-cyclopentyl-7-fluoro-1H-indazol-3-yl)phenyl] N-(tert-butoxycarbonyl)-L-glutamate]
IC50 (human ERα [1]): 150 nM | Emax (human ERα [1]): 52% | EC50 (human ERα [2]): 169 nM | ER/CK % E2 (human ERα [2]): 22 % E2

CC(C)n1nc(-c2ccc(O)cc2O)c2cccc(C(F)(F)F)c21 [Example 65, 4-[1-isopropyl-7-(trifluoromethyl)-1H-indazol-3-yl]benzene-1,3-diol]
IC50 (human ERα [1]): 41 nM | Emax (human ERα [1]): 86% | EC50 (human ERα [2]): 218 nM | ER/CK % E2 (human ERα [2]): 42 % E2

Oc1ccc(-c2nn(C3CCCC3)c3c(-c4ccccc4)cccc23)cc1 [Example 246, 4-(1-cyclopentyl-7-phenyl-1H-indazol-3-yl)phenol]
IC50 (human ERα [1]): 11 nM | Emax (human ERα [1]): 82% | EC50 (human ERα [2]): 136 nM | ER/CK % E2 (human ERα [2]): 28 % E2

Cc1cccc(-n2nc(-c3ccc(O)cc3O)c3ccc(O)cc32)c1 [Example 23, 4-[6-hydroxy-1-(3-methylphenyl)-1H-indazol-3-yl]benzene-1,3-diol]
IC50 (human ERα [1]): 239 nM | Emax (human ERα [1]): 76% | EC50 (human ERα [2]): 72 nM | ER/CK % E2 (human ERα [2]): 55 % E2

Cc1cc(O)ccc1-c1nn(C2CCCC2)c2c(-c3cc4ccccc4s3)cccc12 [Example 266, 4-[7-(1-benzothien-2-yl)-1-cyclopentyl-1H-indazol-3-yl]-3-methylphenol]
IC50 (human ERα [1]): 68 nM | Emax (human ERα [1]): 77% | EC50 (human ERα [2]): 213 nM | ER/CK % E2 (human ERα [2]): 35 % E2

CCCCn1nc(-c2ccc(O)cc2)c2cccc(F)c21 [Example 220, 4-(1-butyl-7-fluoro-1H-indazol-3-yl)phenol]
IC50 (human ERα [1]): 112 nM | Emax (human ERα [1]): 84% | EC50 (human ERα [2]): 2340 nM | ER/CK % E2 (human ERα [2]): 48 % E2

C=CCn1nc(-c2ccc(O)cc2)c2cccc(F)c21 [Example 50, 4-(1-allyl-7-fluoro-1H-indazol-3-yl)phenol]
IC50 (human ERα [1]): 106 nM | Emax (human ERα [1]): 84% | EC50 (human ERα [2]): 327 nM | ER/CK % E2 (human ERα [2]): 43 % E2

CCC(=O)Oc1ccc(-c2nn(C3CCCC3)c3c(F)cccc23)cc1 [Example 115, 4-(1-cyclopentyl-7-fluoro-1H-indazol-3-yl)phenyl propionate]
IC50 (human ERα [1]): 27 nM and 246 nM | Emax (human ERα [1]): 82% | ER/NF-KB-luc % E2 (human ERα [1]; efficacy relative to the maximal inhibition observed with E2): 71 % E2 | EC50 (human ERα [2]): 166 nM | ER/CK % E2 (human ERα [2]): 91 % E2

Oc1ccc(-c2nn(Cc3ccccc3)c3ccccc23)c(O)c1 [Example 183, 4-(1-benzyl-1H-indazol-3-yl)benzene-1,3-diol]
IC50 (human ERα [1]): 431 nM | Emax (human ERα [1]): 135% | EC50 (human ERα [2]): 2930 nM | ER/CK % E2 (human ERα [2]): 48 % E2

Cn1nc(-c2ccc(O)cc2O)c2cccc(C(F)(F)F)c21 [Example 167, 4-[1-methyl-7-(trifluoromethyl)-1H-indazol-3-yl]benzene-1,3-diol]
IC50 (human ERα [1]): 311 nM | Emax (human ERα [1]): 83% | EC50 (human ERα [2]): 588 nM | ER/CK % E2 (human ERα [2]): 29 % E2

Cc1cc(O)ccc1-c1nn(C(C)C)c2c(F)cccc12 [Example 91, 4-(7-fluoro-1-isopropyl-1H-indazole-3-yl)-3-methylphenol]
IC50 (human ERα [1]): 80 nM | Emax (human ERα [1]): 82% | EC50 (human ERα [2]): 787 nM | ER/CK % E2 (human ERα [2]): 24 % E2

CC(C)n1nc(-c2ccc(O)cc2)c2cccc(-c3ccccc3)c21 [Example 236, 4-(1-isopropyl-7-phenyl-1H-indazol-3-yl)phenol]
Emax (human ERα [1]): 83% | EC50 (human ERα [2]): 112 nM

Cc1cc(O)ccc1-c1nn(C2CCCC2)c2c(-c3ccccc3C)cccc12 [Example 264, 4-[1-cyclopentyl-7-(2-methylphenyl)-1H-indazol-3-yl]-3-methyl-phenol]
IC50 (human ERα [1]): 15 nM | Emax (human ERα [1]): 74% | EC50 (human ERα [2]): 15 nM | ER/CK % E2 (human ERα [2]): 21 % E2

Cn1nc(-c2ccc(O)cc2)c2cc(C(F)(F)F)ccc21 [Example 171, 4-[1-methyl-5-(trifluoromethyl)-1H-indazol-3-yl]phenol]
IC50 (human ERα [1]): 582 nM | Emax (human ERα [1]): 95% | EC50 (human ERα [2]): 2380 nM | ER/CK % E2 (human ERα [2]): 42 % E2

Cc1cc(O)ccc1-c1nn(C(C)C)c2c(-c3ccsc3)cccc12 [Example 247, 4-(1-isopropyl-7-thien-3-yl-1H-indazol-3-yl)-3-methylphenol]
IC50 (human ERα [1]): 12 nM | Emax (human ERα [1]): 70% | EC50 (human ERα [2]): 17 nM | ER/CK % E2 (human ERα [2]): 42 % E2

Cc1cccc2c(-c3ccc(O)cc3)n[nH]c12 [Example 34, 4-(7-methyl-1H-indazol-3-yl) phenol]
IC50 (human ERα [1]): 66 nM | Emax (human ERα [1]): 115% | EC50 (human ERα [2]): 137 nM | ER/CK % E2 (human ERα [2]): 87 % E2

CC(C)n1nc2c(Cl)cccc2c1-c1ccc(O)cc1 [Example 46, 4-(7-chloro-2-isopropyl-2H-indazol-3-yl)phenol]
Emax (human ERα [1]): 102% | ER/CK % E2 (human ERα [2]): 67 % E2

CCC(CC)Cn1nc(-c2ccc(O)cc2O)c2cccc(C(F)(F)F)c21 [Example 69, 4-[1-(2-ethylbutyl)-7-(trifluoromethyl)-1H-indazol-3-yl]benzene-1,3-diol]
IC50 (human ERα [1]): 235 nM | Emax (human ERα [1]): 68% | EC50 (human ERα [2]): 704 nM | ER/CK % E2 (human ERα [2]): 32 % E2

Cc1cc(O)ccc1-c1nn(C2CCCC2)c2c(-c3ccco3)cccc12 [Example 263, 4-[1-cyclopentyl-7-(2-furyl)-1H-indazol-3-yl)-3-methylphenol]
IC50 (human ERα [1]): 30 nM | Emax (human ERα [1]): 84% | EC50 (human ERα [2]): 165 nM | ER/CK % E2 (human ERα [2]): 17 % E2
